# Assay results taken from PubChem BioAssay AID1963960 (Molecular Pharmacology Branch, DTP, NCI, 2024).
# Test system: MDA-MB-468 spheroids with HUVEC/MSC, viability
# Experiment: Anticancer human tumor MDA-MB-468 cell line growth inhibition [PI3K];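 further: spheroids exposed to agents for seven days before readout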;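 on viability, T/C: 100% = DMSO vehicle control viability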
# Details: for IC50: curve of first compound; for viability, T/C: stronger effect = lower value
# Procedure, shortened: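 Stroma-containing spheroids: tumor line, pooled-donor HUVEC, hMSC. Treatments: targeted agents with PI3K inhibitors. Dosing: clinically relevant, half-log spacing, 10 microM ceiling without known Cmax. Read-out: cell viability.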
# [1] = second compound 0.00316 µM, first compound 0.0316 µM
# [2] = second compound 0.00316 µM, first compound 0.1 µM
# [3] = second compound 0.00316 µM, first compound 0.316 µM
# [4] = second compound 0.00316 µM, first compound 1 µM
# [5] = second compound 0.00316 µM, first compound 3.16 µM
# [6] = second compound 0.00316 µM, first compound 10 µM
# [7] = second compound 0.01 µM, first compound 0.0316 µM
# [8] = second compound 0.01 µM, first compound 0.1 µM
# [9] = second compound 0.01 µM, first compound 0.316 µM
# [10] = second compound 0.01 µM, first compound 1 µM
# [11] = second compound 0.01 µM, first compound 3.16 µM
# [12] = second compound 0.01 µM, first compound 10 µM
# [13] = second compound 0.0316 µM, first compound 0.0316 µM
# [14] = second compound 0.0316 µM, first compound 0.1 µM
# [15] = second compound 0.0316 µM, first compound 0.316 µM
# [16] = second compound 0.0316 µM, first compound 1 µM
# [17] = second compound 0.0316 µM, first compound 3.16 µM
# [18] = second compound 0.0316 µM, first compound 10 µM
# [19] = second compound 0.1 µM, first compound 0.0316 µM
# [20] = second compound 0.1 µM, first compound 0.1 µM
# [21] = second compound 0.1 µM, first compound 0.316 µM
# [22] = second compound 0.1 µM, first compound 1 µM
# [23] = second compound 0.1 µM, first compound 3.16 µM
# [24] = second compound 0.1 µM, first compound 10 µM
# [25] = second compound 0.316 µM, first compound 0.0316 µM
# [26] = second compound 0.316 µM, first compound 0.1 µM
# [27] = second compound 0.316 µM, first compound 0.316 µM
# [28] = second compound 0.316 µM, first compound 1 µM
# [29] = second compound 0.316 µM, first compound 3.16 µM
# [30] = second compound 0.316 µM, first compound 10 µM
# [31] = second compound 1 µM, first compound 0.0316 µM
# [32] = second compound 1 µM, first compound 0.1 µM
# [33] = second compound 1 µM, first compound 0.316 µM
# [34] = second compound 1 µM, first compound 1 µM
# [35] = second compound 1 µM, first compound 3.16 µM
# [36] = second compound 1 µM, first compound 10 µM
# [37] = second compound 3.16 µM, first compound 0.0316 µM
# [38] = second compound 3.16 µM, first compound 0.1 µM
# [39] = second compound 3.16 µM, first compound 0.316 µM
# [40] = second compound 3.16 µM, first compound 1 µM
# [41] = second compound 10 µM, first compound 0.0316 µM
# [42] = second compound 10 µM, first compound 0.1 µM
# [43] = second compound 10 µM, first compound 0.316 µM
# [44] = second compound 10 µM, first compound 1 µM
compound,measurement,setting,value
Cn1ncc(Cl)c1-c1cc(C(=O)NC(CN)Cc2cccc(F)c2)sc1Cl (stereo not drawn) + COc1c(OCCCN2CCOCC2)ccc2c3n(c(=NC(=O)c4cnc(N)nc4)nc12)CCN3,IC50,second compound 0.00316 µM,331 nM
same,IC50,second compound 0.01 µM,236 nM
same,IC50,second compound 0.0316 µM,152 nM
same,IC50,second compound 0.1 µM,< 31.6 nM
same,IC50,second compound 0.316 µM,< 31.6 nM
same,IC50,second compound 1 µM,< 31.6 nM
same,"viability, T/C",[1],78.5%
same,"viability, T/C",[2],66.2%
same,"viability, T/C",[3],50.1%
same,"viability, T/C",[4],36.1%
same,"viability, T/C",[5],25.3%
same,"viability, T/C",[6],17.2%
same,"viability, T/C",[7],71.8%
same,"viability, T/C",[8],64.2%
same,"viability, T/C",[9],42.7%
same,"viability, T/C",[10],33.2%
same,"viability, T/C",[11],22.9%
same,"viability, T/C",[12],14.6%
same,"viability, T/C",[13],66.5%
same,"viability, T/C",[14],58.7%
same,"viability, T/C",[15],37.2%
same,"viability, T/C",[16],28.5%
same,"viability, T/C",[17],22.1%
same,"viability, T/C",[18],12.1%
same,"viability, T/C",[19],49.6%
same,"viability, T/C",[20],40%
same,"viability, T/C",[21],33.9%
same,"viability, T/C",[22],25.4%
same,"viability, T/C",[23],17.5%
same,"viability, T/C",[24],7.31%
same,"viability, T/C",[25],25.1%
same,"viability, T/C",[26],21.1%
same,"viability, T/C",[27],20.4%
same,"viability, T/C",[28],14.9%
same,"viability, T/C",[29],12.7%
same,"viability, T/C",[30],4.16%
same,"viability, T/C",[31],3.44%
same,"viability, T/C",[32],3.28%
same,"viability, T/C",[33],3.02%
same,"viability, T/C",[34],3.44%
same,"viability, T/C",[35],3.8%
same,"viability, T/C",[36],1.32%
CC1(C)CCC(CN2CCN(c3ccc(C(=O)NS(=O)(=O)c4ccc(NCC5CCOCC5)c([N+](=O)[O-])c4)c(Oc4cnc5[nH]ccc5c4)c3)CC2)=C(c2ccc(Cl)cc2)C1 + CC(Nc1ncnc2nc[nH]c12)c1cc2cccc(Cl)c2c(=O)n1-c1ccccc1,IC50,second compound 0.0316 µM,4800 nM
same,IC50,second compound 0.1 µM,4530 nM
same,IC50,second compound 0.316 µM,4300 nM
same,IC50,second compound 1 µM,3730 nM
same,IC50,second compound 3.16 µM,31.6 nM
same,IC50,second compound 10 µM,< 31.6 nM
same,"viability, T/C",[13],90.5%
same,"viability, T/C",[14],84.6%
same,"viability, T/C",[15],87%
same,"viability, T/C",[16],87.4%
same,"viability, T/C",[17],69.9%
same,"viability, T/C",[18],15.2%
same,"viability, T/C",[19],83.8%
same,"viability, T/C",[20],82.2%
same,"viability, T/C",[21],79.6%
same,"viability, T/C",[22],76.1%
same,"viability, T/C",[23],65.1%
same,"viability, T/C",[24],18.3%
same,"viability, T/C",[25],76.5%
same,"viability, T/C",[26],68.5%
same,"viability, T/C",[27],78%
same,"viability, T/C",[28],68.8%
same,"viability, T/C",[29],62.6%
same,"viability, T/C",[30],17.2%
same,"viability, T/C",[31],58.9%
same,"viability, T/C",[32],65%
same,"viability, T/C",[33],69.9%
same,"viability, T/C",[34],72.2%
same,"viability, T/C",[35],55.8%
same,"viability, T/C",[36],15.5%
same,"viability, T/C",[37],50%
same,"viability, T/C",[38],46.9%
same,"viability, T/C",[39],47.2%
same,"viability, T/C",[40],49.4%
same,"viability, T/C","second compound 3.16 µM, first compound 3.16 µM",50.5%
same,"viability, T/C","second compound 3.16 µM, first compound 10 µM",13.8%
same,"viability, T/C",[41],38.4%
same,"viability, T/C",[42],30.9%
same,"viability, T/C",[43],39%
same,"viability, T/C",[44],42.5%
same,"viability, T/C","second compound 10 µM, first compound 3.16 µM",32.3%
same,"viability, T/C","second compound 10 µM, first compound 10 µM",15.4%
CCN1CCN(Cc2ccc(Nc3ncc(F)c(-c4cc(F)c5nc(C)n(C(C)C)c5c4)n3)nc2)CC1 + Cc1nc(NC(=O)N2CCCC2C(N)=O)sc1-c1ccnc(C(C)(C)C(F)(F)F)c1,IC50,second compound 0.0316 µM,> 1000 nM
same,IC50,second compound 0.1 µM,> 1000 nM
same,IC50,second compound 0.316 µM,> 1000 nM
same,IC50,second compound 1 µM,798 nM
same,IC50,second compound 3.16 µM,191 nM
same,IC50,second compound 10 µM,< 3.16 nM
same,"viability, T/C","second compound 0.0316 µM, first compound 0.00316 µM",97.9%
same,"viability, T/C","second compound 0.0316 µM, first compound 0.01 µM",90%
same,"viability, T/C",[13],83.8%
same,"viability, T/C",[14],113%
same,"viability, T/C",[15],90.8%
same,"viability, T/C",[16],59.9%
same,"viability, T/C","second compound 0.1 µM, first compound 0.00316 µM",98.3%
same,"viability, T/C","second compound 0.1 µM, first compound 0.01 µM",85.9%
same,"viability, T/C",[19],89.1%
same,"viability, T/C",[20],104%
same,"viability, T/C",[21],97.9%
same,"viability, T/C",[22],55.3%
same,"viability, T/C","second compound 0.316 µM, first compound 0.00316 µM",92.4%
same,"viability, T/C","second compound 0.316 µM, first compound 0.01 µM",94%
same,"viability, T/C",[25],93.2%
same,"viability, T/C",[26],81.3%
same,"viability, T/C",[27],80.9%
same,"viability, T/C",[28],52.7%
same,"viability, T/C","second compound 1 µM, first compound 0.00316 µM",94.9%
same,"viability, T/C","second compound 1 µM, first compound 0.01 µM",84.8%
same,"viability, T/C",[31],77%
same,"viability, T/C",[32],76.9%
same,"viability, T/C",[33],62.1%
same,"viability, T/C",[34],46.2%
same,"viability, T/C","second compound 3.16 µM, first compound 0.00316 µM",68.7%
same,"viability, T/C","second compound 3.16 µM, first compound 0.01 µM",58.7%
same,"viability, T/C",[37],61.1%
same,"viability, T/C",[38],64.8%
same,"viability, T/C",[39],37.7%
same,"viability, T/C",[40],41.6%
same,"viability, T/C","second compound 10 µM, first compound 0.00316 µM",39.1%
same,"viability, T/C","second compound 10 µM, first compound 0.01 µM",27.3%
same,"viability, T/C",[41],29.8%
same,"viability, T/C",[42],25.3%
same,"viability, T/C",[43],22%
same,"viability, T/C",[44],23.5%
CC1(C)CCC(Nc2ncc(C(F)(F)F)c(-c3c[nH]c4c(P(C)(C)=O)c(C#N)ccc34)n2)CN1 (stereo not drawn) + CC(Nc1ccc2c(c1)OCCn1cc(N3C(=O)OCC3C(F)F)nc1-2)C(N)=O,IC50,second compound 0.00316 µM,< 31.6 nM
same,IC50,second compound 0.01 µM,< 31.6 nM
same,IC50,second compound 0.0316 µM,< 31.6 nM
same,IC50,second compound 0.1 µM,< 31.6 nM
same,IC50,second compound 0.316 µM,< 31.6 nM
same,IC50,second compound 1 µM,< 31.6 nM
same,"viability, T/C",[1],9.78%
same,"viability, T/C",[2],9.47%
same,"viability, T/C",[3],9.65%
same,"viability, T/C",[4],8.55%
same,"viability, T/C",[5],8.68%
same,"viability, T/C",[6],1.56%
same,"viability, T/C",[7],10.6%
same,"viability, T/C",[8],11.4%
same,"viability, T/C",[9],9.42%
same,"viability, T/C",[10],8.7%
same,"viability, T/C",[11],7.16%
same,"viability, T/C",[12],2.11%
same,"viability, T/C",[13],11.1%
same,"viability, T/C",[14],9.59%
same,"viability, T/C",[15],7.86%
same,"viability, T/C",[16],8.01%
same,"viability, T/C",[17],7.19%
same,"viability, T/C",[18],1.24%
same,"viability, T/C",[19],11.6%
same,"viability, T/C",[20],10%
same,"viability, T/C",[21],9.28%
same,"viability, T/C",[22],8.9%
same,"viability, T/C",[23],7.73%
same,"viability, T/C",[24],1.12%
same,"viability, T/C",[25],11.5%
same,"viability, T/C",[26],9.36%
same,"viability, T/C",[27],8.28%
same,"viability, T/C",[28],8.77%
same,"viability, T/C",[29],6.8%
same,"viability, T/C",[30],1.12%
same,"viability, T/C",[31],11.7%
same,"viability, T/C",[32],9%
same,"viability, T/C",[33],8.85%
same,"viability, T/C",[34],10.9%
same,"viability, T/C",[35],5.99%
same,"viability, T/C",[36],1.09%
